{"source": "ChEMBL document CHEMBL1649482", "about": "“Gene Context and DNA rearrangements in the carbapenemase locus of division II strains of Bacteroides fragilis” (2009)", "assay_type_in_all_cases": "functional", "key": {"Bacteroides fragilis [1]": {"test_system": "Bacteroides fragilis", "assay": "Antimicrobial activity against Bacteroides fragilis MN41 after 24 hrs by agar dilution method", "conditions": "MN41, 24 h"}, "Bacteroides fragilis [2]": {"test_system": "Bacteroides fragilis", "assay": "Antimicrobial activity against Bacteroides fragilis MN11 expressing imipenemase activity after 24 hrs by agar dilution method", "conditions": "MN11, 24 h"}, "Bacteroides fragilis [3]": {"test_system": "Bacteroides fragilis", "assay": "Antimicrobial activity against Bacteroides fragilis MN4a"}, "Bacteroides fragilis [4]": {"test_system": "Bacteroides fragilis", "assay": "Antimicrobial activity against Bacteroides fragilis MN35 after 24 hrs by agar dilution method", "conditions": "MN35, 24 h"}, "Bacteroides fragilis [5]": {"test_system": "Bacteroides fragilis", "assay": "Antimicrobial activity against Bacteroides fragilis MN32 imipenemase activity after 24 hrs by agar dilution method", "conditions": "MN32, 24 h"}, "Bacteroides fragilis [6]": {"test_system": "Bacteroides fragilis", "assay": "Antimicrobial activity against Bacteroides fragilis MN5 after 24 hrs by agar dilution method", "conditions": "MN5, 24 h"}, "Bacteroides fragilis [7]": {"test_system": "Bacteroides fragilis", "assay": "Antimicrobial activity against Bacteroides fragilis MN36 after 24 hrs by agar dilution method", "conditions": "MN36, 24 h"}}, "data": [{"molecule": "C[C@@H](O)[C@H]1C(=O)N2C(C(=O)O)=C(SCCNC=N)C[C@H]12", "note": "[IMIPENEM ANHYDROUS]", "values": [{"measurement": "MIC", "setting": "Bacteroides fragilis [1]", "result": 0.25, "unit": "mg/L"}, {"measurement": "MIC", "setting": "Bacteroides fragilis [2]", "result": 256, "unit": "mg/L"}, {"measurement": "MIC", "setting": "Bacteroides fragilis [3]", "result": 0.5, "unit": "mg/L"}, {"measurement": "MIC", "setting": "Bacteroides fragilis [4]", "result": 0.25, "unit": "mg/L"}, {"measurement": "MIC", "setting": "Bacteroides fragilis [5]", "result": 128, "unit": "mg/L"}, {"measurement": "MIC", "setting": "Bacteroides fragilis [6]", "result": 0.25, "unit": "mg/L"}, {"measurement": "MIC", "setting": "Bacteroides fragilis [7]", "result": 0.25, "unit": "mg/L"}]}]}
